Laboratory results: patent publication US20180362993A1, “ELICITOR-DERIVED PEPTIDES AND USE THEREOF” (Plant Health Care, Inc., priority 2017, published 2018)
Values joined by “and” are separate entries in the source; they are usually repeats but may differ in a detail not shown here. Equal entries are not always repeated. Marks after values point to notes of the source that are not given here.

How the values were obtained:
Format in all cases: in vivo
soy [1] = test: Drought resistance in soy (foliar spray); settings: vs untreated control
Procedure: (§1) The effectiveness of peptide treatment in reducing drought stress was assessed in […]. 3.5 inch pots were filled with Sunshine #1 soil (SunGro Horticulture), fertilized with a 20-10-20 mixture. The soil was soaked and drained overnight. Seeds (soy, manually inspected to ensure uniform seed size) were planted at a depth of half inch for germination. Plants were grown in a greenhouse under 16 hour light days at >70° F. and 8 hour dark nights at >65° F. Prior to drought conditions, the plants were well-watered.
When the plants reached the growth stage when first trifoliate expanded, plants were culled to achieve a uniform height (abnormally large and small plants were removed). Plants were then randomly assigned to control (spray without peptide) or treatment (spray with peptide) groups and heights were measured. Peptide was made up in a solution of 0.2 μg/ml or 2μg/ml in distilled water+0.04% Tween-20, and applied as a fine mist from a spray bottle until the solution drips from the leaves. After the peptide solutions were dried, the plants were again randomized in a randomized complete block design. Cyclic drought stress was initiated after the peptide treatment. Plants were subjected to at least three drought cycles of drought stress (3-5 days of withholding water and 1 day irrigated with saturating amount of water) before harvesting.
(§2) The drought test phase ended after 2-3 weeks. At that time, the plant height was again measured and the growth rate was calculated as the difference between this and the previously-recorded height. The above-ground part portions of the plants were harvested and weighed to obtain fresh weight. The above-ground portion was also dried in an oven at 70° C. for 72 hours to obtain dry weight. All calculations were compared with matched untreated control plants.
The drought testing procedure was carried out in soy using a treatment of P12-2, P13-4, P13-5, P13-7, P13-3, P13-14, P13-2, and P13-15 (SEQ ID NOs: 6, 10, 11, 13, 9, 20, 8, and 21). Asterisks indicate statistical significance by P-value (*: P<0.1 and **: P<0.05)

corn [2] = test: Drought resistance in corn (foliar spray); settings: corn, vs untreated control
Procedure: as §1, with “(either corn or soy,” for “(soy,”, “1” for “half”
When the plants reached the V1 stage, plants were culled to achieve a uniform height (abnormally large and small plants were removed). Plants were then randomly assigned to control (spray without peptide) or treatment (spray with peptide) groups and heights were measured. Peptide was made up in a solution of 0.2 μg/ml or 2μg/ml in distilled water+0.01% Tween-20, and applied as a fine mist from a spray bottle until the solution drips from the leaves. After the peptide solutions were dried, the plants were again randomized in a randomized complete block design. Drought stress was initiated after the peptide treatment. This was caused by maintaining the water level at 25-50% of the maximum capacity for water (capacity was decided as the weight of the pot filled with saturated soil minus the weight of the filled pot prior to adding water).
as §2
The drought testing procedure was carried out in corn using a treatment of P12, P13-10, P13-11, P13-12, P13-14, P13-4, and P13-15 (SEQ ID NOs: 5, 16, 17, 18, 20, 10, and 21). Asterisks indicate statistical significance by P-value (*: P<0.1 and **: P<0.05)

corn [3] = test: Drought resistance in seed-coated corn; settings: for Drought tolerance activity in corn, result in words: corn seed treatment; for % Change Dry Weight / % Change Fresh Weight: vs mock
Procedure: The effectiveness of peptide treatment in reducing the effects of drought stress was assessed in corn using a seed treatment strategy. This strategy largely mirrors example 2, except that the seeds were coated with a peptide formulation rather than a foliar spray application.
Seeds were first sieved using mesh screens to a uniform size (21-23/64 inches). The seeds were then coated with a mixture of peptide, Unicoat™ seed coat polymer, and a minimal volume of water in a Hege 11 Liquid Seed Treater (Wintersteiger) according to manufacturer recommendations. Seeds were coated with one of the following: (i) 0.12 μg peptide/seed, (ii) […], or (iii) a ‘mock’ treatment that included no peptide. The amount of peptide per seed assumes complete transfer of the peptide to seed surfaces in the seed coating chamber. Losses during coating were not considered.
(§3) 3.5 inch pots were filled (approximately 0.2 L per pot) with Sunshine #1 mix (SunGro Horticulture), fertilized with 14-14-14 N,P,K Osmocote (Everris), and mixed for 20 minutes using a soil mixer M-5. Seeds were planted at a depth of 0.5 inch for germination. The pots were immediately irrigated by submergence then drained after about an hour. For each treatment group, 24 replicate seeds were planted. Plants were grown in a greenhouse under 16 hour light days at ˜75° F. and 8 hour dark nights at ˜65° F. Prior to drought conditions, the plants were well-watered.
Three days after planting, the plants were randomized using a complete block design and subjected to a cyclic drought stress. Drought stress was imposed by withholding water for 2-3 days until the majority of plants were under medium to severe water stress. The severity of the stress was determined by the weight of the pot and visual determination of leaf curling. Once drought stress was attained, the pots were watered to full saturation. Full Saturation (100% pot capacity) is defined as the weight of the pot filled with water-saturated soil minus the weight of the filled pot prior to adding water. Drought stress was imposed for a total of 18 days.
(§4) At the end of the experiment (18 days after initiation of drought stress), the plant was then harvested for fresh and dry weights. Individual plants were cut near the soil surface and weighed immediately (fresh weight). The plants were then placed into labeled brown paper bags and dried in a 70° C. oven for 72 hours. A dry weight was then obtained.
The following calculation was performed on the collected data: Fresh weight at harvest and dry weight at harvest for the plants grown from peptide-treated seeds were expressed as a % change relative to the ‘mock’ treated plants.

[4] = tested on: tobacco mosaic virus (TMV); test: Induction of resistance to tobacco mosaic virus in tobacco (foliar spray); settings: for Effectiveness Covered (% decline in TMV lesions vs UTC): covered leaf (systemic response); for Effectiveness Uncovered (% decline in TMV lesions vs UTC): uncovered leaf (local response)
Procedure: Peptides were tested for the induction of resistance to tobacco mosaic virus (TMV) in tobacco. Briefly, three tobacco plants at 6-8 weeks old were selected per group (samples and controls). The bottom-most leaf of the plant was covered and the plant was sprayed with a solution of water (untreated control—UTC), peptide, or Proact (positive control). The spray was applied until the leaves were fully wetted, indicated by liquid dripping from the leaves. The plants were then allowed to dry and the leaf covering was removed.
Three days post-treatment, the previously-covered leaf and a leaf on the opposite side of the plant were then lightly dusted with diatomaceous earth and 20 ul of a 1.7 μg/ml solution of purified tobacco mosaic virus was applied. The TMV solution was then spread across the leaf surface by lightly rubbing solution and the diatomaceous earth across the surface of the leaves. Two minutes after inoculation, the diatomaceous earth was rinsed off the leaves with water. 3 days after TMV inoculation, the leaves were scored based on the number of TMV lesions observed. The leaf was also scored for signs of the hypersensitive response, including yellowing and wilting of the affected leaves.
Effectiveness described in Table 5 refers to the % decline in TMV lesions on treated vs UTC plants. A reduction of TMV on covered leaves indicates a systemic immune response in the plant while reduction on uncovered leaves indicates a local response. Asterisks indicate that the P-value derived from a T-test was <0.05.

soy [5] = test: Drought resistance in seed-treated soy; settings: for % Change Dry Weight / % Change Fresh Weight: vs mock
Procedure: The effectiveness of peptide treatment in reducing drought stress was assessed in soy using a seed treatment strategy. This strategy largely mirrors examples 3 and 4.
Seeds were first sieved using mesh screens to a uniform size (14-17 mesh). The seeds were then coated with a mixture of peptide and Unicoat™ seed coat polymer in a Hege 11 Liquid Seed Treater (Wintersteiger) according to manufacturer recommendations. […]
as §3
Seven days after germination the heights of the plants were measured. This was determined as the distance between the soil surface and the shoot apical meristems (buds). The plants were randomized using a complete block design and subjected to a cyclic drought stress. Drought stress was imposed by withholding water for 3-4 days until the majority of plants were under medium to severe water stress. The severity of the stress was determined by the weight of the pot and visual determination of loss of turgor in the leaves (drooping). Once drought stress was attained, the pots were watered to full saturation. Full Saturation (100% pot capacity) is defined as the weight of the pot filled with water-saturated soil minus the weight of the filled pot prior to adding water. Drought stress was imposed for a total of 18 days.
as §4, with “the plant above the soil surface was then” for “the plant was then”, “then obtained. The following calculation was performed on the collected data: Fresh weight at harvest, and dry weight at harvest for the peptide-treated plants were expressed as a % change relative to the ‘mock’ treated plants.” for “then obtained.”

[6] = corn seed treatment 0.12 μg/seed
[7] = corn seed treatment 1.05 μg/seed

Sequence | Dry Weight Increase (soy [1]; foliar spray 2 μg/ml) | Fresh Weight Increase (soy [1]; foliar spray 2 μg/ml) | Drought tolerance activity in corn, result in words (corn [3]) | % Change Dry Weight (corn [3]; [6]) | % Change Fresh Weight (corn [3]; [6]) | Dry Weight Increase (soy [1]; foliar spray 0.2 μg/ml) | Fresh Weight Increase (soy [1]; foliar spray 0.2 μg/ml) | % Change Dry Weight (corn [3]; [7]) | % Change Fresh Weight (corn [3]; [7]) | further results
GDLQGSGASTQDTSGMSPMEQLMKIFADITQSLFGDQDG (P12-2 peptide) [Peptide P12-2] | 3.55% | 7.83** % | – | – | – | – | – | – | – | –
GQTSGMSPMEQLMKIFADITQSLFG (P13-15 peptide) [Peptide P13-15] | 2.07% | 5.38* % | – | – | – | – | – | – | – | Dry Weight Increase (corn [2]; foliar spray 0.2 μg/ml): 6.21%; Fresh Weight Increase (corn [2]; foliar spray 0.2 μg/ml): 2.92%
LEELEELLEIFEEIEEELFEE (P13-7 peptide) [Peptide P13-7] | 4.50* % | 5.80* % | preservation of activity | 4.77** % | 5.6* % | – | – | – | – | –
LSPLEQLMKIFADITQSLFEEEE (P13-5 peptide) [Peptide P13-5] | 4.36% | 9.73** % | supported corn drought tolerance | – | – | 6.93** % | 12.23** % | 5.07* % | 5.66** % | –
MSPMEQLMKIFADITQSLFEEEE (P13-4 peptide) [Peptide P13-4] | – | – | – | – | – | 4.45* % | 7.75** % | – | – | Dry Weight Increase (corn [2]; foliar spray 2 μg/ml): 0.06%; Fresh Weight Increase (corn [2]; foliar spray 2 μg/ml): −2.77%
QTGDDSLSGAGQTSGMSPMEQLMKIFADITQSLFG (P13-14 peptide) [Peptide P13-14] | – | – | – | 3.77% | 9.11** % | −3.68** % | −2.86% | 7.92** % | 11.83** % | Dry Weight Increase (corn [2]; foliar spray 2 μg/ml): 2.48%; Fresh Weight Increase (corn [2]; foliar spray 2 μg/ml): 4.36* %
QTGDDSLSGAGQTSGMSPMEQLMKIFADITQSLFGDQ (P13-13 peptide) [Peptide P13-13] | – | – | – | – | – | – | – | – | – | Effectiveness Covered (% decline in TMV lesions vs UTC) ([4]; 20 μg/ml spray): 38.5%; Effectiveness Uncovered (% decline in TMV lesions vs UTC) ([4]; 20 μg/ml spray): 36.6%
QTGDDSLSGAGQTSGMSPMEQLMKIFADITQSLFGDQDG (P12 peptide) [Peptide P12] | – | – | – | – | – | – | – | – | – | Dry Weight Increase (corn [2]; foliar spray 2 μg/ml): 6.28** %; Fresh Weight Increase (corn [2]; foliar spray 2 μg/ml): 4.87* %; Effectiveness Covered (% decline in TMV lesions vs UTC) ([4]; 10 μg/ml spray): 66* %; Effectiveness Uncovered (% decline in TMV lesions vs UTC) ([4]; 10 μg/ml spray): 53* %
SEEMSPMEQLMKIFADITQSLFEE (P13-36 peptide) [Peptide P13-36] | – | – | supported corn drought tolerance | 5.93** % | 10.60** % | – | – | 7.95** % | 12.38** % | % Change Dry Weight (soy [5]; soy seed treatment 0.9 μg/seed): −4.78%; % Change Fresh Weight (soy [5]; soy seed treatment 0.9 μg/seed): 1.46%
SEQEEEMEEMEQLMEIFEEIEQELFE (P13-28 peptide) [Peptide P13-28] | – | – | preservation of activity | 8.52** % | 9.99** % | – | – | 6.04** % | 8.18** % | Result in the seed treated drought study for soy, in words (soy [5]; soy seed treatment): significant results; % Change Dry Weight (soy [5]; soy seed treatment 0.9 μg/seed): 10.35** %; % Change Fresh Weight (soy [5]; soy seed treatment 0.9 μg/seed): 14.35** %
SQEEEMEPMEQLMEIFEEIEQELFG (P13-26 peptide) [Peptide P13-26] | – | – | preservation of activity | 4.74** % | 3.77* % | – | – | 5.92** % | 4.23* % | % Change Dry Weight (soy [5]; soy seed treatment 0.1 μg/seed): 3.40%; % Change Fresh Weight (soy [5]; soy seed treatment 0.1 μg/seed): 2.04%
TSGLSPLEQLLKIFADITQSLFG (P13-2 peptide) [Peptide P13-2] | 14.54** % | 15.56** % | – | – | – | 8.70** % | 7.84** % | 0.38% | 3.67% | –
TSGLSPLEQLLKIFAEITQSLFG (P13-3 peptide) [Peptide P13-3] | 2.54% and 6.07** % | 5.90** % and 13.61** % | – | 2.81% | 1.49% | 8.47** % | 11.43** % | – | – | –
